Our source for the IC50 values is patent US10980809B2, “Urea-substituted aromatic ring-linked dioxane-quinazoline and -linked dioxane-quinoline compounds, preparation method therefor and use thereof” (BEIJING SCITECH-MQ PHARMACEUTICALS LIMITED, priority 2017, dated 2021).

One experiment deals with VEGFR-2 kinase (Homo sapiens (Human), UniProt P35968). As to the kind of experiment: Test of small molecule compounds for inhibiting the activity of VEGFR-2 kinase. The format is biochemical. As to conditions: class symbols A-D. On the procedure: Test of Small Molecule Compounds for Inhibiting the Activity of VEGFR-2 Kinase
Chain of VEGFR-2 kinase (P35968 20-1356): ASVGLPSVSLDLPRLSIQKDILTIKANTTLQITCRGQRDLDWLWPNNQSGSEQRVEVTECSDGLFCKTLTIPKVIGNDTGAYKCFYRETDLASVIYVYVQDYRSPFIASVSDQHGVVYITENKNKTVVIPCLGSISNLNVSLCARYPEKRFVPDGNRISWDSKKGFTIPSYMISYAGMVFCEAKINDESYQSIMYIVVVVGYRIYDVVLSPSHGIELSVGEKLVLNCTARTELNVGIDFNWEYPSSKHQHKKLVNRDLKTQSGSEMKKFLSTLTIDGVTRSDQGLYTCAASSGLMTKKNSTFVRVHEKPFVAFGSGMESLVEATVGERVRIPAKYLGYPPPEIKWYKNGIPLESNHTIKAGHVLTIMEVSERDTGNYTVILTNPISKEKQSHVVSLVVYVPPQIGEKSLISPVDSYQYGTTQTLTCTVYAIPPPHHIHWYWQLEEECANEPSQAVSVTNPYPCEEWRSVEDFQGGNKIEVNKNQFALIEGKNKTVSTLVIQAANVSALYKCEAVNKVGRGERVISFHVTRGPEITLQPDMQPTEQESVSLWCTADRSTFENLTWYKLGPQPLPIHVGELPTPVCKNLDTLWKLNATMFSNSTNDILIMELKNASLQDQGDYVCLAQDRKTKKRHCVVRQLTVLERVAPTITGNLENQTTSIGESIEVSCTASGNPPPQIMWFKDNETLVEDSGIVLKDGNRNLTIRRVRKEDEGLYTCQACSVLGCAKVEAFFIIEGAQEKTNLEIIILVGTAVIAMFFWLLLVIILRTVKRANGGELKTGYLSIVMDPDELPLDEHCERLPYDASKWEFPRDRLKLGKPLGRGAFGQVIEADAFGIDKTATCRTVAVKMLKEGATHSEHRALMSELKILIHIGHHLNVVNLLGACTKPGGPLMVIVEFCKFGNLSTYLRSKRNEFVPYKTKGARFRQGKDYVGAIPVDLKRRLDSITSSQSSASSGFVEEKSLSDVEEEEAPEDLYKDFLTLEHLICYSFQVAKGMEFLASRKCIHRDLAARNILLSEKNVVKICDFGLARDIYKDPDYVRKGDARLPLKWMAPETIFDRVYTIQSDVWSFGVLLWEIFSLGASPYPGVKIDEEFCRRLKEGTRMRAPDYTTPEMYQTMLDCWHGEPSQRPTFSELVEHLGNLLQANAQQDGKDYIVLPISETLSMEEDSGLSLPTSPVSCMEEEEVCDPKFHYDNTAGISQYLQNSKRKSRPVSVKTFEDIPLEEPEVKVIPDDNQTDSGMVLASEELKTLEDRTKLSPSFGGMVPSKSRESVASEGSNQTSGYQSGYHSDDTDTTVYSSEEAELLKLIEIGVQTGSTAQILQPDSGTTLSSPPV
The test was carried out as follows:
2. 2.5 μl of the gradient-diluted compounds was taken with a transfer pipette to a 384-well plate,
3. Addition of enzyme: 5 μl of 2×VEGFR-2 kinase was taken with a transfer pipette to the corresponding reaction well of the 384-well plate, which was mixed and pre-reacted at room temperature for 30 min,
5. Negative control: 2.5 μl/well 4× substrate/ATP Mix and 7.5 μl 1× Kinase Assay Buffer were added to the wells of the 384-well plate,
Positive control: 2.5 μl/well 4× substrate/ATP Mix, 2.5 μl/well 1× Kinase Assay Buffer containing 4% DMSO, and 5 μl/well 2×VEGFR-2 solution were added to the 384-well plate. The final concentration of DMSO in the reaction system is […],
6. The mixture was mixed well and then centrifuged and reacted at room temperature in dark for 60 min,
9. The 384-well plate was placed into the Envision plate reader and the signal was detected using the appropriate program,

The target of a further experiment is C-RAF (Homo sapiens (Human), UniProt P04049). As to the kind of experiment: Test of small molecule compounds for inhibiting the activity of C-RAF kinase (ADP-Glo).
Chain of C-RAF (P04049 whole entry): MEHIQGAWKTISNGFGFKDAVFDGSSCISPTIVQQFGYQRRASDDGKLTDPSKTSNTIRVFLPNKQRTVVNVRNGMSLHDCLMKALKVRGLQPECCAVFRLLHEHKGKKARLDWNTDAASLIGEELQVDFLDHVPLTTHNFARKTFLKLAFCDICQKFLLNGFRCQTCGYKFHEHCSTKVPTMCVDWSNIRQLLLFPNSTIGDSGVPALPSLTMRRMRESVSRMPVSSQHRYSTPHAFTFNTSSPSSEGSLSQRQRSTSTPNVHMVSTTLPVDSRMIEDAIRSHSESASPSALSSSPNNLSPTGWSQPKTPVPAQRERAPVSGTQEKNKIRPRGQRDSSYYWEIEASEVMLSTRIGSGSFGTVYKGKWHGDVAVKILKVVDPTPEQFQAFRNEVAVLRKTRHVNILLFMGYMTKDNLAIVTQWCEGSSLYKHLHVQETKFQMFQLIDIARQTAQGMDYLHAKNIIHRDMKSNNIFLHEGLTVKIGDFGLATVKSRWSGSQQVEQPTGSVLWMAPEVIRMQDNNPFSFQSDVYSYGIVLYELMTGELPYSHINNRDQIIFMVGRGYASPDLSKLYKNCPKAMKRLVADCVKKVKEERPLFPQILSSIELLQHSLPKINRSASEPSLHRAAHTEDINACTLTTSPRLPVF
A further experiment has as its target B-RAF (Homo sapiens (Human), UniProt P15056). Briefly: Test of small molecule compounds for inhibiting the activity of B-RAF kinase (ADP-Glo). For orientation: ADP-Glo turns the ADP formed in a reaction into a luminescent signal.

Some results are limits rather than exact numbers.

Chain of B-RAF (P15056 whole entry): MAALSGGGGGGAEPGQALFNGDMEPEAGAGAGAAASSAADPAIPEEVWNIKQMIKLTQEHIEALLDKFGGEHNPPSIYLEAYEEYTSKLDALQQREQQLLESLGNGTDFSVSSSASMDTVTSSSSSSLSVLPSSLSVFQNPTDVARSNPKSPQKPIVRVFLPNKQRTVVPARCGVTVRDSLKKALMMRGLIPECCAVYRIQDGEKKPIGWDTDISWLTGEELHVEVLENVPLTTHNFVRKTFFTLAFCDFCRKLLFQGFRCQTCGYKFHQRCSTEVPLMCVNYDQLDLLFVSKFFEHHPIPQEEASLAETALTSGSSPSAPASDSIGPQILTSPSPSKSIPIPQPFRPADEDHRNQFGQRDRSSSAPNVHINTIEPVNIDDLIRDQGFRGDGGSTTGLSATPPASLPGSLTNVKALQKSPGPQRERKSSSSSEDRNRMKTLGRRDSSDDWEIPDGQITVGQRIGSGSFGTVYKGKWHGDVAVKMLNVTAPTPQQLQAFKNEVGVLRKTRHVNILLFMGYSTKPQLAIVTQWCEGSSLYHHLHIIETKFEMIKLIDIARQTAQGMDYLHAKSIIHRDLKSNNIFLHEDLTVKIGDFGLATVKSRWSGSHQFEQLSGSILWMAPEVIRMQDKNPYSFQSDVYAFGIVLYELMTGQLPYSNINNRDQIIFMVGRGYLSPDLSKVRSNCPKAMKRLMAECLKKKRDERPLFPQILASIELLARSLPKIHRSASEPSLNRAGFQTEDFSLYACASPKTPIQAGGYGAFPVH
Experimental for B-RAF: (§1) Test of Small Molecule Compounds for Inhibiting the Activity of C-RAF and B-RAF Kinases
(§2) 1. Preparation of test compounds: according to the molecular weight of the compounds, an appropriate volume of DMSO was directly added to dissolve the test compounds. For storing the compound, the concentration of DMSO is 100%, and the final concentration of DMSO in the experimental system is 1%.
(§3) Enzyme: B-RAF: 0.1 ng/l (the final concentration in the reaction system); C-RAF: 0.1 ng/μl (the final concentration in the reaction system)
(§4) HPE: the reaction without enzyme (1% DMSO)
(§5) ZPE: the reaction with enzyme but without compound (1% DMSO)
(§6) a) 1 ul of 10-fold diluted compound or 10% DMSO was added to a 384-well assay plate,
(§7) b) 4 ul enzyme solution or assay buffer was added to the wells of the assay plate,
(§8) c) the plate was centrifuged at 1000 rpm for 1 minute to homogeneous,
(§9) d) 5 ul of ATP-substrate mixture was added to the wells of the assay plate,
(§10) e) the plate was shaked for mixing for 2 minutes,
(§11) f) the plate was incubated at 30° C. for 1 hour,
(§12) g) 10 ul of ADP-Glo reagent was added to the wells of the assay plate, and the plate was incubated for 40 minutes at 27° C.,
(§13) h) 20 ul of kinase assay solution was added to the wells of the plate, and the plate was incubated for 30 minutes at 27° C.,
(§14) i) the chemiluminescent signal was read with Envision.
(§15) The IC50 values of the positive control compound and the test compounds were calculated using the Prism software according to the variable slope of the curve.
Experimental for C-RAF: as §1, §2, §3, §4, §5, §6, §7, §8, §9, §10, §11, §12, §13, §14, §15

A word on the IC50: it is the point on the concentration scale where inhibition reaches its midpoint. On to `O=C(Nc1ccc(Oc2ncnc3cc(OCCCN4CCOCC4)c4c(c23)OCCO4)c(F)c1)Nc1cc(C(F)(F)F)ccc1F` [Example 67, 1-(3-fluoro-4-((5-(3-morpholinopropoxy)-2,3-dihydro-[1,4]dioxino[2,3-f]quinazolin-10-yl)oxy)phenyl)-3-(2-fluoro-5-(trifluoromethyl)phenyl)urea], for which the half-maximal inhibitory concentration (IC50) against VEGFR-2 kinase was less than 50 nM; on C-RAF, 500 to 1000 nM; at B-RAF, 200 to 500 nM.
Turning to `COc1cc2ncnc(Nc3ccc(NC(=O)Nc4ccc(Cl)c(C(F)(F)F)c4)c(Cl)c3)c2c2c1OCCO2` [Example 11, 1-(2-chloro-4-((5-methoxy-2,3-dihydro-[1,4]dioxino[2,3-f]quinazolin-10-yl)amino)phenyl)-3-(4-chloro-3-(trifluoromethyl)phenyl)urea], the IC50 is less than 50 nM against VEGFR-2 kinase, […] against C-RAF and […] on B-RAF.
Taken in the same sequence, the figures for `O=C(Nc1ccc(Oc2ncnc3cc(OCCCN4CCCC4)c4c(c23)OCCO4)cc1Cl)NC1CC1` [Example 62, 1-(2-chloro-4-((5-(3-(pyrrolidin-1-yl)propoxy)-2,3-dihydro-[1,4]dioxino[2,3-f]quinazolin-10-yl)oxy)phenyl)-3-cyclopropylurea] were less than 50 nM, more than 1000 nM and more than 1000 nM.
Take `COCCOc1cc2ncnc(Oc3ccc(NC(=O)Nc4cccc(OC)c4)cc3)c2c2c1OCCO2` [Example 50, 1-(4-((5-(2-methoxyethoxy)-2,3-dihydro-[1,4]dioxino[2,3-f]quinazolin-10-yl)oxy)phenyl)-3-(3-methoxyphenyl)urea]: the results for the IC50 at VEGFR-2 kinase, against C-RAF and at B-RAF were less than 50 nM, more than 1000 nM and more than 1000 nM, respectively.
As to `O=C(Nc1ccc(Oc2ncnc3cc(OCCCN4CCOCC4)c4c(c23)OCCO4)cc1)Nc1cc(C(F)(F)F)ccc1F` [Example 65, 1-(2-fluoro-5-(trifluoromethyl)phenyl)-3-(4-((5-(3-morpholinopropoxy)-2,3-dihydro-[1,4]dioxino[2,3-f]quinazolin-10-yl)oxy)phenyl)urea], the IC50 is less than 50 nM against VEGFR-2 kinase, […] at C-RAF and […] against B-RAF.
`COCCOc1cc2ncnc(Oc3ccc(NC(=O)Nc4ccc(F)cc4F)c(F)c3)c2c2c1OCCO2` [Example 49, 1-(2,4-difluorophenyl)-3-(2-fluoro-4-((5-(2-methoxyethoxy)-2,3-dihydro-[1,4]dioxino[2,3-f]quinazolin-10-yl)oxy)phenyl)urea]: the values for the 50% inhibitory concentration (IC50) against VEGFR-2 kinase, on C-RAF and at B-RAF were less than 50 nM, more than 1000 nM and more than 1000 nM, respectively.
For `O=C(Nc1ccc(Oc2ncnc3cc(OCCCN4CCOCC4)c4c(c23)OCCO4)c(F)c1)Nc1ccc(Cl)c(C(F)(F)F)c1` [Example 68, 1-(4-chloro-3-(trifluoromethyl)phenyl)-3-(3-fluoro-4-((5-(3-morpholinopropoxy)-2,3-dihydro-[1,4]dioxino[2,3-f]quinazolin-10-yl)oxy)phenyl)urea], the IC50 against VEGFR-2 kinase is less than 50 nM; at C-RAF, 500 to 1000 nM; at B-RAF it was 200 to 500 nM.
On the same counts, the results for `O=C(Nc1ccc(Oc2ncnc3cc(OCCCN4CCOCC4)c4c(c23)OCCO4)cc1Cl)NC1CC1` [Example 64] are less than 50 nM, more than 1000 nM and more than 1000 nM.
On the same counts, the results for `COCCOc1cc2ncnc(Oc3ccc(NC(=O)NC4CC4)c(Cl)c3)c2c2c1OCCO2` [Example 45, 1-(2-chloro-4-((5-(2-methoxyethoxy)-2,3-dihydro-[1,4]dioxino[2,3-f]quinazolin-10-yl)oxy)phenyl)-3-cyclopropylurea] are less than 50 nM, more than 1000 nM and more than 1000 nM.
For the compound `COCCOc1cc2ncnc(Nc3ccc(NC(=O)Nc4ccc(Cl)c(C(F)(F)F)c4)c(Cl)c3)c2c2c1OCCO2` [Example 42, 1-(2-chloro-4-((5-(2-methoxyethoxy)-2,3-dihydro-[1,4]dioxino[2,3-f]quinazolin-10-yl)amino)phenyl)-3-(4-chloro-3-(trifluoromethyl)phenyl)urea], the results for the IC50 against VEGFR-2 kinase, against C-RAF and on B-RAF were less than 50 nM, 500 to 1000 nM and less than 200 nM, respectively.
In the case of `COCCOc1cc2ncnc(Oc3ccc(NC(=O)Nc4cc(C(F)(F)F)ccc4F)cc3F)c2c2c1OCCO2` [Example 58, 1-(3-fluoro-4-((5-(2-methoxyethoxy)-2,3-dihydro-[1,4]dioxino[2,3-f]quinazolin-10-yl)oxy)phenyl)-3-(2-fluoro-5-(trifluoromethyl)phenyl)urea], the IC50 at VEGFR-2 kinase is less than 50 nM.
In turn, `CSCCOc1cc2ncnc(Nc3ccc(NC(=O)NC4CC4)c(Cl)c3)c2c2c1OCCO2` [Example 84, 1-(2-chloro-4-((5-(2-methylthioethoxy)-2,3-dihydro-[1,4]dioxino[2,3-f]quinazolin-10-yl)amino)phenyl)-3-cyclopropylurea] gave a 50% inhibitory concentration (IC50) against VEGFR-2 kinase of less than 50 nM.
With `COCCOc1cc2nccc(Oc3ccc(NC(=O)Nc4ccc(Cl)c(C(F)(F)F)c4)cc3F)c2c2c1OCCO2` [Example 94, 1-(4-chloro-3-(trifluoromethyl)phenyl)-3-(3-fluoro-4-((5-(2-methoxyethoxy)-2,3-dihydro-[1,4]dioxino[2,3-f]quinoline-10-yl)oxy)phenyl)urea], the IC50 against VEGFR-2 kinase was in the range of 50 to 500 nM.
Same read-out and setting: with `COCCOc1cc2ncnc(Oc3ccc(NC(=O)Nc4cc(C(F)(F)F)ccc4F)c(F)c3)c2c2c1OCCO2` [Example 57, 1-(2-fluoro-4-((5-(2-methoxyethoxy)-2,3-dihydro-[1,4]dioxino[2,3-f]quinazolin-10-yl)oxy)phenyl)-3-(2-fluoro-5-(trifluoromethyl)phenyl)urea] the figure was less than 50 nM; with `O=C(Nc1ccc(Oc2ncnc3cc(OCCCN4CCOCC4)c4c(c23)OCCO4)cc1)Nc1cccc2ccccc12` [Example 31, 1-(4-((5-(3-morpholinopropoxy)-2,3-dihydro-[1,4]dioxino[2,3-f]quinazolin-10-yl)oxy)phenyl)-3-(naphthalen-1-yl)urea], less than 50 nM; with `COCCOc1cc2ncnc(Nc3ccc(NC(=O)Nc4ccccc4)c(Cl)c3)c2c2c1OCCO2` [Example 37, 1-(2-chloro-4-((5-(2-methoxyethoxy)-2,3-dihydro-[1,4]dioxino[2,3-f]quinazolin-10-yl)amino)phenyl)-3-phenylurea], less than 50 nM.
Same read-out and setting: with `COCCOc1cc2ncnc(Oc3ccc(NC(=O)Nc4ccnc(OC)c4)cc3Cl)c2c2c1OCCO2` [Example 53, 1-(3-chloro-4-((5-(2-methoxyethoxy)-2,3-dihydro-[1,4]dioxino[2,3-f]quinazolin-10-yl)oxy)phenyl)-3-(2-methoxypyridin-4-yl)urea] the figure was less than 50 nM; with `COc1cc2ncnc(Oc3ccc(NC(=O)NC4CC4)c(Cl)c3)c2c2c1OCCO2` [Example 22, 1-(2-chloro-4-((5-methoxy-2,3-dihydro-[1,4]dioxino[2,3-f]quinazolin-10-yl)oxy)phenyl)-3-cyclopropylurea], less than 50 nM.
At VEGFR-2 kinase, `COc1cccc(NC(=O)Nc2ccc(Nc3ncnc4cc(OC)c5c(c34)OCCO5)cc2Cl)c1` [Example 4, 1-(2-chloro-4-((5-methoxy-2,3-dihydro-[1,4]dioxino[2,3-f]quinazolin-10-yl)amino)phenyl)-3-(3-methoxyphenyl)urea] came in with a half-maximal inhibitory concentration (IC50) of less than 50 nM.
